Source: PMC7567334 (Environmental Health Perspectives, 2020)
“Also recorded” adds a separate entry of the source.

Key:
[1] = test system: fathead minnow (Pimephales promelas); details: exposure to 10 μg/L; ref Ankley et al. 2010; cited from earlier work
AR = molecular target: T1, AR (Rattus norvegicus, UniProt P15207); test: PolarScreen AR Competitor binding affinity assay; details: in words; tested up to 10 μM
T1 construct: purchased Invitrogen
T1 sequence (P15207 651-902 limits assumed): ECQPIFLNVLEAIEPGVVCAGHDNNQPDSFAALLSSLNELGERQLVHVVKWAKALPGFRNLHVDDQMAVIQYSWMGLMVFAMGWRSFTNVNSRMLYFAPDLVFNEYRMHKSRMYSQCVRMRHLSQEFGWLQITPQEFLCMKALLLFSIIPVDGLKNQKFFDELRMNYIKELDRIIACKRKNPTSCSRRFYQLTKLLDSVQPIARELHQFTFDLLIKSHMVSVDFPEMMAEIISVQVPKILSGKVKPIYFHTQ

human (h) ERα [2] = molecular target: T2, human (h) ERα (Homo sapiens, UniProt P03372); details: test for false positivity
T2 sequence (P03372 1-595): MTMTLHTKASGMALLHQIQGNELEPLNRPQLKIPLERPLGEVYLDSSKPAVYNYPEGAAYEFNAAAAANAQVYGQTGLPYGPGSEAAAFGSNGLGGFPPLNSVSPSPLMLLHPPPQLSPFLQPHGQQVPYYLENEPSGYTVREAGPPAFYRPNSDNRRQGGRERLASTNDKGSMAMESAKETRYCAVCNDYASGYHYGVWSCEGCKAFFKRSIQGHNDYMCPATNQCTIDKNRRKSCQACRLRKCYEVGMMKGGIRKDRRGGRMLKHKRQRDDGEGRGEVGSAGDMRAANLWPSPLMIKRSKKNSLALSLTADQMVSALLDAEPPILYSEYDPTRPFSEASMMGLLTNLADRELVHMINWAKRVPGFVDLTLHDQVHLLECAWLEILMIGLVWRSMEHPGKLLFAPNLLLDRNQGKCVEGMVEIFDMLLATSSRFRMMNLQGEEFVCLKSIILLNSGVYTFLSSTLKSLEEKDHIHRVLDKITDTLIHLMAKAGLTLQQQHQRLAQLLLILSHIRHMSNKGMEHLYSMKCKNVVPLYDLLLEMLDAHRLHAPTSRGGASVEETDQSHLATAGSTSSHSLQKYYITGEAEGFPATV

TRα and TRβ [3] = test: GH3.TRE-Luc TR reporter assay, antagonist setup (0.25 nM T3); format: cell-based, rat
AR-EcoScreen cells = test: Cell viability (resazurin) in AR-EcoScreen cells; details: agonist assay
human (h) ERα [4] = molecular target: T2, human (h) ERα; test: hERα-HeLa-9903 transactivation assay, agonist setup; format: cell-based; design: host or cells: hERα-HeLa-9903 (HeLa derived); details: for higher ERα RTA than vehicle control: vs 0.1% DMSO
TRα and TRβ [5] = test: GH3.TRE-Luc TR reporter assay, agonist setup; format: cell-based, rat; details: 1 μM; vs 0.1% DMSO
GR = molecular target: T3, GR (Homo sapiens, UniProt P04150); test: PolarScreen GR Competitor binding affinity assay; design: purchased Invitrogen; details: in words; tested up to 10 μM
T3 sequence (P04150 1-777): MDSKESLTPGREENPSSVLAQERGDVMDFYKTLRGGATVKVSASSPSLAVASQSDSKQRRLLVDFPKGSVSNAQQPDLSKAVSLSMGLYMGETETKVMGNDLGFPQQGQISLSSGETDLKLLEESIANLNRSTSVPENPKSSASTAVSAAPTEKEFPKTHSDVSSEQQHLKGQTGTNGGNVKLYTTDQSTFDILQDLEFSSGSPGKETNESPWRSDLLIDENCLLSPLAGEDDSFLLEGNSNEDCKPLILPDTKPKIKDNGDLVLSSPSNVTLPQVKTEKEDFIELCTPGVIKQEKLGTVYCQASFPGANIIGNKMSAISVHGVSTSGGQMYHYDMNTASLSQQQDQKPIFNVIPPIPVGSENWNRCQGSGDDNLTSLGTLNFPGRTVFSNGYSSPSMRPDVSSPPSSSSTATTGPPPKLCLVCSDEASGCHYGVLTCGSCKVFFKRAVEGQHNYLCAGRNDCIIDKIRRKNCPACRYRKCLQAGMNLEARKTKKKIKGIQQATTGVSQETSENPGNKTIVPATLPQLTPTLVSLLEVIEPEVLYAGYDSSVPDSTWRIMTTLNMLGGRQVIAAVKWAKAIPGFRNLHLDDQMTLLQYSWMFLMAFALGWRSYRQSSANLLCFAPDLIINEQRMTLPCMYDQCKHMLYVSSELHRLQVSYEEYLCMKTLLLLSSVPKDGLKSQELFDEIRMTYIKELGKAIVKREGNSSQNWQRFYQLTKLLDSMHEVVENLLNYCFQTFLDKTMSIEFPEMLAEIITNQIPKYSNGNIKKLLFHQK

firefly luciferase = molecular target: T4, firefly luciferase (Photinus pyralis, UniProt P08659); test: Luciferase inhibition assay in GH3.TRE-Luc cell lysates; format: biochemical; details: cell lysate, read-out: inhibition of firefly luciferase luminescence signal
T4 construct: Only implied by 'CP' in the vector name, from my own knowledge; expressed in transfected cells; host or cells: GH3.TRE-Luc cells induced with 0.25 nM T3, lysate
T4 sequence (P08659 whole entry): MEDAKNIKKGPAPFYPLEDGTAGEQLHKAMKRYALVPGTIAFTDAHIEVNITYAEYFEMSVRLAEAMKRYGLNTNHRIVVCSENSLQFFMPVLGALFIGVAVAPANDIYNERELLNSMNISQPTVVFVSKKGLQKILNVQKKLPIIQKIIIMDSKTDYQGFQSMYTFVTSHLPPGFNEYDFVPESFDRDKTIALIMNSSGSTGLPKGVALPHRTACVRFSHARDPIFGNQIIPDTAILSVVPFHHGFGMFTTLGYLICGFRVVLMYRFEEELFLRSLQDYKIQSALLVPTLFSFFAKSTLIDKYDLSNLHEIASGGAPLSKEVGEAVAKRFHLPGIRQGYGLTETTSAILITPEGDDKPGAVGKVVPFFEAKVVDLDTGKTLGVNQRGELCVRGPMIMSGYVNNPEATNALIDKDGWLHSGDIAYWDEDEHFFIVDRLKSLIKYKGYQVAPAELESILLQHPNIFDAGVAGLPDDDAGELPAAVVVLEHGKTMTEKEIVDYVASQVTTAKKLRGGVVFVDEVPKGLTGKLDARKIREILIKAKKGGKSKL
Procedure: Serial dilutions for each treatment were prepared in the cell lysate and incubated at room temperature for 30 min.

O=C(Nc1ccc(Cl)cc1)Nc1ccc(Cl)c(Cl)c1 [Triclocarban, 1-(4-Chlorophenyl)-3-(3,4-dichlorophenyl) urea]
effect in fathead minnow [1]: increased masculinization
binding affinity assay on isolated AR, result (AR): did not show binding; also recorded: No binding; also recorded: negative
estrogenic effect in presence of ER antagonist 10 μM hydroxytamoxifen (human (h) ERα [2]): blocked all
lower TR RTA than spike-in control (TRα and TRβ [3]; 1 μM, vs 0.1% DMSO with 0.25 nM T3): 44.3%
TR antagonist activity, call (TRα and TRβ [3]; GH3.TRE-Luc): Antagonist
concentration with TR antagonist activity (TRα and TRβ [3]; GH3.TRE-Luc): 1 µM
highest noncytotoxic concentration (AR-EcoScreen cells): 2.5 µM
higher ERα RTA than vehicle control (human (h) ERα [4]; 1 μM): 53%
higher ERα RTA than vehicle control (human (h) ERα [4]; 5 μM): 58%
ERα agonist activity, call (human (h) ERα [4]; hERα-HeLa-9903): Agonist
concentration with ERα agonist activity (human (h) ERα [4]; hERα-HeLa-9903): 1 to 5 µM
baseline TR-mediated transcriptional activity lower than vehicle control (agonist setup) (TRα and TRβ [5]): > 50%
binding affinity assay on isolated GR, result (GR): did not show binding; also recorded: negative
inhibition at 50 µM (firefly luciferase): 46.7%
